Data taken from ChEMBL document CHEMBL4725400, “Natural product-inspired aryl isonitriles as a new class of antimalarial compounds against drug-resistant parasites” (Bioorg Med Chem, 2020).

Experiments:
Plasmodium falciparum [1] = test: Antimalarial activity against blood stage chloroquine-resistant Plasmodium falciparum Dd2 infected in human erythrocytes assessed as inhibition of parasite growth incubated for 72 hrs by SYBR Green I dye based staining analysis; type: functional, organism-based; details: Dd2, Erythrocyte
[2] = Selectivity index, ratio of MTD for cytotoxicity against human HaCaT cells to EC50 for antimalarial activity against blood stage chloroquine-resistant Plasmodium falciparum Dd2 infected in human erythrocytes; type: toxicity, cell-based; details: read-out: Selectivity Index
Plasmodium falciparum [3] = test: Antimalarial activity against Plasmodium falciparum W2 assessed as inhibition of parasite growth; type: functional, organism-based
[4] = Selectivity index, ratio of IC50 for cytotoxicity against human KB cells to EC50 for antiplasmodial activity against Plasmodium falciparum W2; type: toxicity, cell-based; details: read-out: Selectivity Index

SMILES	EC50 (Plasmodium falciparum [1])	further results
[C-]#[N+]c1ccccc1/C=C/c1cccc(C(F)(F)F)c1	0.27 µM	
[C-]#[N+]c1ccccc1/C=C(\CC)c1ccccc1	10.6 µM	
[C-]#[N+]c1ccccc1/C=C/c1ccccc1	11.5 µM	
[C-]#[N+]c1ccc(/C=C/c2ccc([N+]#[C-])cc2)cc1	0.027 µM	selectivity ratio [2]: 4740
[C-]#[N+]c1ccc(CCc2cccc([N+]#[C-])c2)cc1	2.75 µM	
[C-]#[N+]c1ccccc1/C=C/c1ccc(OC)cc1	3.07 µM	
[C-]#[N+]c1ccc(/C=C/c2ccc(OC)cc2)cc1	2.27 µM	
CC1=C[C@]2(CC1)[C@H](C)CC[C@@H](C(C)C)[C@H]2N=C=S		EC50 (Plasmodium falciparum [3]): 11.8 µM
[C-]#[N+]c1ccccc1/C=C/c1cccc(F)c1	12.4 µM	
[C-]#[N+]c1ccc(/C=C/c2ccccc2[N+]#[C-])cc1	0.068 µM	
[C-]#[N+]c1ccccc1/C=C/c1ccc(F)cc1	0.56 µM	
[C-]#[N+]c1ccc(CCc2ccc([N+]#[C-])cc2)cc1	0.22 µM	
[C-]#[N+]c1ccc(/C=C/c2cc(OC)cc(OC)c2)cc1	1.62 µM	
[C-]#[N+]c1ccccc1/C=C/c1ccccc1F	3.68 µM	
[C-]#[N+]c1ccc(/C=C/c2cccc([N+]#[C-])c2)cc1	0.266 µM	
[C-]#[N+]c1cccc(/C=C/c2ccccn2)c1	9.73 µM	
[C-]#[N+]c1ccc(/C=C/c2ccc(Cl)c(Cl)c2)cc1	3.21 µM	
[C-]#[N+]c1cccc(/C=C/c2cccnc2)c1	0.69 µM	
[C-]#[N+]c1ccccc1-c1ccccc1	10.8 µM	
CC/C(=C\c1ccccc1)c1ccccc1	> 100 µM	
[C-]#[N+]c1ccc(/C=C/c2ccc3ccccc3n2)cc1	5.25 µM	
[C-]#[N+][C@@H]1[C@H](C(C)C)CC[C@@H](C)[C@@]12C=C(C)CC2 [AXISONITRILE 3]		EC50 (Plasmodium falciparum [3]): 0.071 µM
[C-]#[N+]c1ccc(/C=C/c2cccc(OC)c2)cc1	1.01 µM	
[C-]#[N+]c1ccccc1/C=C/c1ccccc1C(F)(F)F	4.31 µM	
[C-]#[N+]c1ccccc1C=C(c1ccccc1)c1ccccc1	3.62 µM	

SMILES	EC50 (Plasmodium falciparum [1])	further results
[C-]#[N+]c1cccc(/C=C/c2ccccc2)c1	5.32 µM	
[C-]#[N+]c1ccccc1/C=C/c1cccc(OC)c1	6.45 µM	
[C-]#[N+]c1ccccc1-c1ccc2ccccc2c1	6.21 µM	
[C-]#[N+]c1ccc(/C=C/c2ccccn2)cc1	10.3 µM	
[C-]#[N+]c1ccccc1/C=C/c1cccnc1	13 µM	
[C-]#[N+][C@]1(C)[C@H](C)C[C@@H]2C[C@H](C)[C@H]3CC[C@](C)([N+]#[C-])[C@H]4CC[C@H]1[C@@H]2[C@H]34 [DIISOCYANOADOCIANE]		selectivity ratio [4]: 1000; EC50 (Plasmodium falciparum [3]): 0.013 µM
[C-]#[N+]c1ccc(/C=C/c2ccc(C(F)(F)F)cc2)cc1	2.17 µM	
[C-]#[N+]c1ccc(/C=C/c2ccncc2)cc1	0.088 µM	selectivity ratio [2]: 1450
[C-]#[N+]c1ccccc1/C=C(\CC)c1ccc(F)cc1	9.84 µM	
[C-]#[N+]c1ccccc1/C=C/c1ccccc1OC	21.6 µM	
[C-]#[N+]c1ccc(/C=C/c2ccc(F)cc2)cc1	4.69 µM	
[C-]#[N+]c1ccccc1/C=C/c1ccccn1	7.53 µM	
[C-]#[N+]c1ccccc1/C=C(\CC)c1cccc(C(F)(F)F)c1	5.41 µM	
[C-]#[N+]c1ccc(CCc2ccncc2)cc1	0.56 µM	
[C-]#[N+]c1ccccc1/C=C/c1ccncc1	3.7 µM	
[C-]#[N+]c1ccc(/C=C/c2cccnc2)cc1	5.18 µM	
[C-]#[N+]c1ccccc1/C=C(\CCC)c1ccccc1	3.06 µM	
[C-]#[N+]c1ccc(/C=C/c2ccccc2)cc1	2.77 µM	
[C-]#[N+]c1ccccc1/C=C/c1ccc(C(F)(F)F)cc1	5.8 µM	
[C-]#[N+]c1ccccc1/C=C(\CC)c1ccc(C(F)(F)F)cc1	7.69 µM	
[C-]#[N+]c1ccccc1/C=C(\CCCC)c1ccccc1	5.25 µM	
[C-]#[N+]c1ccc(CCc2ccccc2[N+]#[C-])cc1	0.44 µM	
[C-]#[N+]c1ccc(/C=C/c2ccnc3ccccc23)cc1	6.98 µM	
[C-]#[N+]c1ccc(/C=C/c2ccco2)cc1	2.66 µM	
